From patent US6270799A, “Medicament formulation with a controlled release of an active agent” (Bayer Aktiengesellscahft, priority 1997, dated 2001)

Legend:
[1] = absorption behaviour in the lower sections of the intestine; type: in vivo; details: in contrast to ciprofloxacin
Text: It was therefore the object of the present invention to develop a drug formulation of the compound I and pharmaceutically tolerable salts thereof and/or their hydrates which meets the requirements described above. […] Only this surprising absorption behaviour of moxifloxacin, which is different from known quinolonecarboxylic acid antibiotics, opens up any possibility of developing a retard formulation of moxifloxacin.

[2] = system: gram-negative and gram-positive bacteria; details: against gram-negative and gram-positive bacteria; relative to sparfloxacin and ciprofloxacin; Drugs of the Future 1997, 22 (2): 109/113; cited from earlier work
water solubility = type: physicochemical; details: compound I and/or its salts and/or hydrates

Compound	absorption in the lower sections of the intestine (colon, rectum) [1]	antibacterial action [2]	solubility (water solubility)
COc1c(N2C[C@@H]3CCCN[C@@H]3C2)c(F)cc2c(=O)c(C(=O)O)cn(C3CC3)c12 [compound II]	also absorbed in the lower sections of the intestine (colon, rectum)	–	–
COc1c(N2C[C@@H]3CCCN[C@@H]3C2)c(F)cc2c(=O)c(C(=O)O)cn(C3CC3)c12 [compound I, 1-cyclopropyl-7-([S,S]-2,8-diazabicyclo[4.3. 0]non-8-yl)-6-fluoro-1,4-dihydro-8-methoxy-4-oxo-3-quino-lonecarboxylic acid]	–	frequently significantly better than that of sparfloxacin and ciprofloxacin	~24 mg/mL
